From patent publication US20240391880A1, “KCa3.1 INHIBITORS FOR PODOCYTE PROTECTION” (Icahn School of Medicine at Mount Sinai, priority 2021, published 2024)
Entries after “also recorded” stand apart in the source; their conditions may differ.

Tests used:
[1] = molecular target: T1, KCa3.1 (Mus musculus, UniProt O89109); assay: Whole-cell patch clamp electrophysiology in YAP silenced podocytes; type: cell-based
T1 construct: endogenous in cells; host or cells: YAP shRNA (YAP KD) conditionally immortalized mouse podocytes
Description: (§1) Cells plated on coverslips are transferred to a submersion recording chamber and continuously perfused (2-4 ml/min) with RPMI cell culture medium containing (in mM): NaCl 124, KCl 2.5, NaH2PO4 1.2, NaHCO3 24, HEPES 5, glucose 12.5, MgSO4 2, and CaCl2 2, pH 7.4. The solution is continuously bubbled with 95% O2/5% CO2, and recordings are obtained at 25±1° C. Cells are recorded under infrared differential contrast optics (BX51; Olympus). After control readings are measured, the solution is then switched to the solutions containing the molecules. […] Recording pipettes (3-5 MΩ), pulled from borosilicate glass, are filled with internal solution containing (in mM): K gluconate 120, HEPES 10, KCl 20, MgCl2 1, MgATP 2, Na2GTP 0.5, Na-phosphocreatine 10, CaCl2 1.71 and EGTA 2, pH 7.25. Data are acquired with a Multiclamp 700 A amplifier (Molecular Devices), subsequently filtered at 10 kHz and digitized at 10 kHz, and analysis is performed with pClamp 11 software (Molecular Devices). Whole-cell data will be collected. All data will be recorded at room temperature.

[2] = molecular target: T2, KCa3.1 (Homo sapiens, UniProt O15554); assay: Whole-cell patch clamp electrophysiology in KCNN4 overexpression podocytes; type: cell-based, mouse; details: KCNN4 OE podocytes
T2 construct: expressed in transfected cells; host or cells: immortalized mouse podocytes (KCNN4 OE)
Description: as §1

[3] = system: YAP knockdown podocytes; assay: Rescue of YAP knockdown podocyte morphology (phalloidin/paxillin staining); type: cell-based, mouse
Description: Podocytes were cultured as previously described (2, 14, 35). Briefly, conditionally immortalized murine podocytes were cultured in Dulbecco's modified Eagle's medium (DMEM; Life Technologies) supplemented with 10% heat-inactivated fetal bovine serum (Life Technologies) and 100 U/mL penicillin-streptomycin (Life Technologies) on type I collagen (Corning, Corning, NY) coated dishes or flasks. Undifferentiated podocytes were maintained at 33° C. in the presence of 10 U/mL mouse γ-interferon (Cell Sciences, Canton, MA) to drive T-antigen expression. To induce differentiation, podocytes were thermo-shifted to a 37° C. incubator and switched to medium lacking γ-interferon.
The pLKO.1 plasmids (YAP shRNA or control shRNA) along with the helper plasmids psPAX^2 and pMD2.G were transfected into HEK293T cells at 70% confluence using FuGENE 6 (Promega). Medium was replaced 16-18 h after transfection. 36 and 60 h after transfection, virus-containing supernatants were harvested and centrifuged at 3,000 rpm for 5 min. Viral particles were then passed through a 0.45-μm filter. The supernatants were subsequently used for the infection of target cells in the presence of 4 μg/ml Polybrene (Sigma). […]
Changes in the organization of the actin cytoskeleton were assessed by phalloidin staining and paxillin staining as described previously. […]

[4] = system: YAP KD podocytes; assay: Intracellular calcium dynamics in YAP KD podocytes (Fluo-3, ATP stimulation); type: cell-based, mouse; details: for CaD50 / time to peak of calcium uptake: YAP silenced podocytes, upon ATP stimulation
Description: Intracellular calcium dynamics were measured in wild type and YAP KD podocytes loaded with Fluo-3, stimulated with ATP ([…]) and imaged for 3 minutes at 1 frame per 0.5 seconds on a high-speed Zeiss 880 laser scanning confocal microscope with automated CO2incubator stage.
Isolated cells were superfused with Tyrode solution containing (mm): NaCl 140, KCl
5, Hepes 5, NaH2PO4 1, MgCl2 1, CaCl2 1.8, glucose 10 (pH 7.4). To allow for confocal imaging of [Ca^2+]i, cells were loaded for 30 min with 5 μm fluo-3 AM (Molecular Probes, Eugene, OR, USA), then washed and stored for 20 min in Tyrode solution to enable dye de-esterification. Confocal imaging in line-scan mode was performed on a Zeiss 510 microscope. Cells were scanned with light at 488 nm from an argon-ion laser, and fluorescence above 505 nm was recorded. To generate repeated Ca^2+ sparks at a limited number of locations, 50 nm ryanodine (Calbiochem, San Diego, CA, USA) was added to the external solution.

[5] = system: podocytes; assay: LPS-induced podocyte injury in vitro; type: cell-based, mouse; details: LPS 100 μg/ml for 24 hrs, co-treatment
Description: (§2) The ability of KCa3.1 inhibitors to protect from podocyte injury induced by lipopolysaccharide (LPS) was tested in vitro and in vivo. […] The protective effect was tested in vivo by administering LPS to 8-week old C57BL/6J mice at 0 hr and 24 hrs.
Differentiated podocytes were exposed to different doses of LPS (50-100 μg/ml) for 24 hours. Changes in the organization of the actin cytoskeleton were assessed by phalloidin staining and paxillin staining as described previously. Each set of experiments was repeated at least three times. Briefly, cells were fixed with 4% PFA, 4% sucrose in PBS at room temperature for 15 minutes and then permeabilized with 0.3% Triton X-100 in PBS with washes in between. Coverslips were washed 3× with PBS and incubated blocking solution (2% FCS, 2% BSA, 0.2% fish gelatin) for 30 minutes at room temperature before further incubation with one of the primary antibodies for 1 hour at room temperature. For double labeling, sections were washed three times with PBS for 5 minutes, and the second primary antibody was applied for 60 minutes. Antigen-antibody complexes were visualized with secondary antibodies 1:500 (Life Technologies) conjugated with fluorochrome (Alexa 488, Alexa 594, or Alexa 647) for 1 hour at room temperature. For stress fibers, phalloidin-rhodamine was used. For the nuclei, we used DAPI. Confocal microscopy with Leica DMI was done.

[6] = system: C57BL/6J mice; assay: LPS-induced glomerular disease in mice; type: in vivo, mouse; details: for albuminuria: 48 hours after LPS injection, compound given at 12 hr and 24 hr
Description: as §2
Albuminuria was qualitatively screened using a 10% SDS-PAGE gel followed by Coomassie-blue staining. BSA standards of 0.1, 0.5, 5 μg were used and 5 μl urine was used from each sample to quantify urine albumin in duplicate using commercial kits, according to the manufacturer's protocol (mouse albumin ELISA, Bethyl Laboratories).

[7] = expected K+ equilibrium (VK) calculated at -83 mV

KCa3.1 conductance [1] | KCa3.1 conductance [2] | stimuli to peak ([4]; YAP knockdown cells, 5uM and 10 uM) | CaD50 [4] | time to peak of calcium uptake [4] | SMILES | rescue from focal adhesion loss and F-actin reorganization [3] | crossover potential of before and after I-V plots [1, 7] | LPS-induced actin cytoskeletal reorganization and loss of focal adhesions [5] | albuminuria [6] | foot process injury (scanning EM) ([6]; LPS treated mice) | crossover potential of before and after I-V plots [2, 7]
enhanced | enhanced | – | – | – | Cc1cc2nc(N)oc2c2ccccc12 [SKA121, reference compound] | – | – | – | – | – | –
decreased KCa3.1 conductance | decreased KCa3.1 conductance | significantly decreased | decreased | decreased | Brc1ccccc1-c1nc2ccccc2[nH]1 [BT563, 2-(2-bromophenyl)-1H-benzo[d]imidazole] | most consistently rescued | closer to the expected K+ equilibrium (VK) | abrogated | statistically significant decrease; also recorded: decreased albuminuria | not seen; also recorded: rescue of LPS-induced podocyte foot process disruption | –
decreased KCa3.1 conductance | decreased KCa3.1 conductance | – | decreased | decreased | Cc1ccn2cc(-c3ccccc3)nc2c1 [BT564, 7-methyl-2-phenylimidazo[1,2-α]pyridine] | most consistently rescued | – | abrogated | not | – | –

SMILES | KCa3.1 conductance [1] | KCa3.1 conductance [2] | stimuli to peak ([4]; YAP knockdown cells, 5uM and 10 uM) | CaD50 [4] | time to peak of calcium uptake [4] | rescue from focal adhesion loss and F-actin reorganization [3] | crossover potential of before and after I-V plots [1, 7] | LPS-induced actin cytoskeletal reorganization and loss of focal adhesions [5] | albuminuria [6] | foot process injury (scanning EM) ([6]; LPS treated mice) | crossover potential of before and after I-V plots [2, 7]
Clc1ccccc1C(c1ccccc1)(c1ccccc1)n1cccn1 [TRAM-34, reference compound] | decreased | decreased | – | decreased | decreased | – | – | – | – | – | did cross at the expected K+ equilibrium
